Measured values: the kinase profiling compilation of Christmann-Franck et al. (2016)
Several values for one entry are separate records, joined by “and”; a condition that tells them apart may be missing. Equal entries are not always repeated. One block for each molecule: values may come before it.

Assays:
Test in all cases: radiometric filter-binding kinase assay, Kinase HotSpot
Conditions in all cases: compound 0.5 µM; ATP 10 µM
TGFBR1 (human) = TGFBR1 (human) (UniProt P36897)
SYK (human) = SYK (human) (UniProt P43405)
NEK1 (human) = NEK1 (human) (UniProt Q96PY6)
SLK (human) = SLK (human) (UniProt Q9H2G2)
CSNK1D (human) = CSNK1D (human) (UniProt P48730)
PAK6 (human) = PAK6 (human) (UniProt Q9NQU5)
LTK (human) = LTK (human) (UniProt P29376)
NEK11 (human) = NEK11 (human) (UniProt Q8NG66)
TAOK3 (human) = TAOK3 (human) (UniProt Q9H2K8)
PIM3 (human) = PIM3 (human) (UniProt Q86V86)
NEK9 (human) = NEK9 (human) (UniProt Q8TD19)
ROCK2 (human) = ROCK2 (human) (UniProt O75116)
Chain of ROCK2 (human) (O75116 whole entry, looked up): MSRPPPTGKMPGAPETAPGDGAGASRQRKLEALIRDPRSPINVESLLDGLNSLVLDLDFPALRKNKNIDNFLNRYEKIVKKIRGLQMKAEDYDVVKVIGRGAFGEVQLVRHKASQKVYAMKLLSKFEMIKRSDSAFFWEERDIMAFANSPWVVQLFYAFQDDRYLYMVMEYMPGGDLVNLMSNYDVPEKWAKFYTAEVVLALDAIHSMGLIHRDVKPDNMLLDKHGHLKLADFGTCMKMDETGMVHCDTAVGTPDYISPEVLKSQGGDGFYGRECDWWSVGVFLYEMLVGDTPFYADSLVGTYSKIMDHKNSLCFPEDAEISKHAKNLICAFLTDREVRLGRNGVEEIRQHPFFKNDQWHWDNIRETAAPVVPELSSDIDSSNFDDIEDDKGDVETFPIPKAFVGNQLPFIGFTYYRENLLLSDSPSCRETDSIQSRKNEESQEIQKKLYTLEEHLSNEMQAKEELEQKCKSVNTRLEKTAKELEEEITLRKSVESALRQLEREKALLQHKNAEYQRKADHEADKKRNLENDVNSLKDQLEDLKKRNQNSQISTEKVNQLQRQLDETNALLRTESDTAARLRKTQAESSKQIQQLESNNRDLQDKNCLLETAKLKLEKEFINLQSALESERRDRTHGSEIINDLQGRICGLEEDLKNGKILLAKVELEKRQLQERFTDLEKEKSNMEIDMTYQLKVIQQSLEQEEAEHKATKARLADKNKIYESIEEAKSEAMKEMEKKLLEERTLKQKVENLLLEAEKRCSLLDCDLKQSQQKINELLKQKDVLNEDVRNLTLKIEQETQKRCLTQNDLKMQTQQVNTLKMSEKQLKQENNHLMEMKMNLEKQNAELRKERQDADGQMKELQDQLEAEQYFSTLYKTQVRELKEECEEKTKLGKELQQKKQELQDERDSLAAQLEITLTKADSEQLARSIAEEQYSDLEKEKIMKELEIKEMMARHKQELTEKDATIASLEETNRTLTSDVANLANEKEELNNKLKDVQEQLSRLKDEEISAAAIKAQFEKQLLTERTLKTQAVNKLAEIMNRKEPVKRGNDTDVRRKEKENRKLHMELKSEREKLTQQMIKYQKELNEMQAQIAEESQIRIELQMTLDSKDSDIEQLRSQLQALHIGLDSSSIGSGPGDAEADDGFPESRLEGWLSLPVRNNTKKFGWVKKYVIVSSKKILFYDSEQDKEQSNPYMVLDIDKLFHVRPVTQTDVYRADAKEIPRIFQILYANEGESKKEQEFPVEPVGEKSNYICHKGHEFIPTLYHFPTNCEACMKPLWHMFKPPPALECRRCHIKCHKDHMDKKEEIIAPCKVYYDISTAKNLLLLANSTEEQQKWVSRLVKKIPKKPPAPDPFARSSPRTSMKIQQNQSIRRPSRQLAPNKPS

CSNK1G2 (human) = CSNK1G2 (human) (UniProt P78368)
PRKCA (human) = PRKCA (human) (UniProt P17252)
PLK1 (human) = PLK1 (human) (UniProt P53350)
TBK1 (human) = TBK1 (human) (UniProt Q9UHD2)
Chain of TBK1 (human) (Q9UHD2 whole entry, looked up): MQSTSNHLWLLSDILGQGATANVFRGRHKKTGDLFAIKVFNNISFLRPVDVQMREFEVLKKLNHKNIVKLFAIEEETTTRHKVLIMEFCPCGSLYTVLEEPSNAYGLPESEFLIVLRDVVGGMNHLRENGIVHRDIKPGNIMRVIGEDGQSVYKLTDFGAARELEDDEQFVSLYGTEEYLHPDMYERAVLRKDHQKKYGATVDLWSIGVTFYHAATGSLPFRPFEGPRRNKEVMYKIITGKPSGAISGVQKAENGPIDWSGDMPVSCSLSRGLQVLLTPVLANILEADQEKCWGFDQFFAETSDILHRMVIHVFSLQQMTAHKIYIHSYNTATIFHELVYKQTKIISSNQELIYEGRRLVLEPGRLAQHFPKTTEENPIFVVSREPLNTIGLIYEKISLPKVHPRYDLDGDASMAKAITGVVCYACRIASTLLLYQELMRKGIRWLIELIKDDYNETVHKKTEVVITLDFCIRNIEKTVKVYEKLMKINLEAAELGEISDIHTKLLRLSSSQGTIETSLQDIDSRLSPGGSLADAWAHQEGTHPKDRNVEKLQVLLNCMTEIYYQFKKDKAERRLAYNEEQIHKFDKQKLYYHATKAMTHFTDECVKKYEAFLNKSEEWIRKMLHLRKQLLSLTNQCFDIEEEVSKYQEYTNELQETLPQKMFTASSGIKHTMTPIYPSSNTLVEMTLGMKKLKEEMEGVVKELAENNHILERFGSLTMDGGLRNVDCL

MAPK14 (human) = MAPK14 (human) (UniProt Q16539)
ROS1 (human) = ROS1 (human) (UniProt P08922)
[1] = target: TYK2 JH1 catalytic (human) (UniProt P29597)
Chain of TYK2 JH1 catalytic (human) (P29597 whole entry, looked up): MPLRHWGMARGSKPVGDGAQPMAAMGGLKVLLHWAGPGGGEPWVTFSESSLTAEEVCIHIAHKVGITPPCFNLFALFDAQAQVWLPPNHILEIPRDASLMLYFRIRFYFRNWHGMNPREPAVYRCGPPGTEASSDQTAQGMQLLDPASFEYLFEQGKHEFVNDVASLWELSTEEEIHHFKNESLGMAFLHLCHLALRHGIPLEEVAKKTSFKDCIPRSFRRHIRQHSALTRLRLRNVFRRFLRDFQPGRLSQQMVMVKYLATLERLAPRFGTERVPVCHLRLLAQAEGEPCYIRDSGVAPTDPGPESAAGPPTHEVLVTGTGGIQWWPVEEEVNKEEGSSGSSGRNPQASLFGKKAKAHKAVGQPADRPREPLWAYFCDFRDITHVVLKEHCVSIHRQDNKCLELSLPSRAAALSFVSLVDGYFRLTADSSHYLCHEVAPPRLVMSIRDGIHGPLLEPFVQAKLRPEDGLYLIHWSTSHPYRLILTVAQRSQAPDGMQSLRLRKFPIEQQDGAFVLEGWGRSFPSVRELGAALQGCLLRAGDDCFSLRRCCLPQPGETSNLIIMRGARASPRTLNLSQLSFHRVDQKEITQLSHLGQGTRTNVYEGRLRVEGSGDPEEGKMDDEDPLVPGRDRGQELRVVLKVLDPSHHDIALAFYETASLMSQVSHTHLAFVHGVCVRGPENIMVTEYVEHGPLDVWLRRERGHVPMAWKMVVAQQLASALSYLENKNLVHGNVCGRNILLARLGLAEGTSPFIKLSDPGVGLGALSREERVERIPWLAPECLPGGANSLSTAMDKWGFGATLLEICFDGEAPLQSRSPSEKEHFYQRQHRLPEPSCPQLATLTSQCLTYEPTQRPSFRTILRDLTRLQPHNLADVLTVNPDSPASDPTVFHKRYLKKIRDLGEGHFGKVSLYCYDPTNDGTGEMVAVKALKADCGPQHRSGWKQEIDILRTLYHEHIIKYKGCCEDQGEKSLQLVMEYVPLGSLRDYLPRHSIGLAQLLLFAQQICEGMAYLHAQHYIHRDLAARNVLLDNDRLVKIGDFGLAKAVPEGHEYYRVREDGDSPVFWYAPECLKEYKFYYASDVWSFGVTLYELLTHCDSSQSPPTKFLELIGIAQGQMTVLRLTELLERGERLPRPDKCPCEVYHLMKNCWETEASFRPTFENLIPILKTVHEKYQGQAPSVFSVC

PRKG2 (human) = PRKG2 (human) (UniProt Q13237)
PDGFRB (human) = PDGFRB (human) (UniProt P09619)
ULK2 (human) = ULK2 (human) (UniProt Q8IYT8)
PAK3 (human) = PAK3 (human) (UniProt O75914)
HIPK1 (human) = HIPK1 (human) (UniProt Q86Z02)
CAMK1G (human) = CAMK1G (human) (UniProt Q96NX5)
LYN (human) = LYN (human) (UniProt P07948)
Chain of LYN (human) (P07948 whole entry, looked up): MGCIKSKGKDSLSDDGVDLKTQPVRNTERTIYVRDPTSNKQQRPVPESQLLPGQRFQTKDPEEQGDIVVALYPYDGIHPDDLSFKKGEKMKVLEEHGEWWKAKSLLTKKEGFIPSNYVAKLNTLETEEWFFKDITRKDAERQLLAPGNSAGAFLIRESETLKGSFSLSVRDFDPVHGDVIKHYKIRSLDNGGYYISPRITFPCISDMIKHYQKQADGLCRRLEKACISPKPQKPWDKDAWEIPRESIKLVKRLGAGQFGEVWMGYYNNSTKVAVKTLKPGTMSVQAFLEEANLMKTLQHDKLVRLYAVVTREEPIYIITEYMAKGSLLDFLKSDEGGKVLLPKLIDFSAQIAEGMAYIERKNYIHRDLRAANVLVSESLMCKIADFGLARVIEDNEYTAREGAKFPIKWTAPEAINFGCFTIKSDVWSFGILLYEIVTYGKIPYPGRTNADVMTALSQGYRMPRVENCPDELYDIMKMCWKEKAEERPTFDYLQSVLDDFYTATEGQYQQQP

EPHA2 (human) = EPHA2 (human) (UniProt P29317)
DYRK4 (human) = DYRK4 (human) (UniProt Q9NR20)
MAPK11 (human) = MAPK11 (human) (UniProt Q15759)
SGK2 (human) = SGK2 (human) (UniProt Q9HBY8)
RPS6KA6 KD1 KD2 (human) = RPS6KA6 KD1 KD2 (human) (UniProt Q9UK32)
Chain of RPS6KA6 KD1 KD2 (human) (Q9UK32 whole entry, looked up): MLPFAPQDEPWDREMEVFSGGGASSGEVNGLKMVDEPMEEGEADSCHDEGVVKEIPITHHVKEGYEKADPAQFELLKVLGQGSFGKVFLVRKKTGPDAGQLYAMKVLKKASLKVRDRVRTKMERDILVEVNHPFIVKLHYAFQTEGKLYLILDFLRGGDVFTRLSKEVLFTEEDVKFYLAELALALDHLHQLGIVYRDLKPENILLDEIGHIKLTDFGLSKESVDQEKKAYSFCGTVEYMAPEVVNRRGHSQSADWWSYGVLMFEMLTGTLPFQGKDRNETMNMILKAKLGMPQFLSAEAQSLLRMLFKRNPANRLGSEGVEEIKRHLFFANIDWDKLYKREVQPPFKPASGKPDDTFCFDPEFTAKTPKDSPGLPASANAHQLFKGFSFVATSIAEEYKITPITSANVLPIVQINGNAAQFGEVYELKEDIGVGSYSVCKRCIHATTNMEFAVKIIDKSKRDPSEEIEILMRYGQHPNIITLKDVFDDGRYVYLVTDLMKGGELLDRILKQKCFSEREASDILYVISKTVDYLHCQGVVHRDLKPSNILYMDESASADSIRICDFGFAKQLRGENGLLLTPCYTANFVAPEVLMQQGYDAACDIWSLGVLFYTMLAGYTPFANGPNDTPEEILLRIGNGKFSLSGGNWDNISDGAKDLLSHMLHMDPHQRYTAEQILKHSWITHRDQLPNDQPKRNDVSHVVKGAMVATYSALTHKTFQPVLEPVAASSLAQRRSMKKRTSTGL

SRMS (human) = SRMS (human) (UniProt Q9H3Y6)
CAMKK1 (human) = CAMKK1 (human) (UniProt Q8N5S9)
CAMKK2 (human) = CAMKK2 (human) (UniProt Q96RR4)
RPS6KB1 (human) = RPS6KB1 (human) (UniProt P23443)
CAMK1D (human) = CAMK1D (human) (UniProt Q8IU85)
MST1R (human) = MST1R (human) (UniProt Q04912)
CSNK2A1 (human) = CSNK2A1 (human) (UniProt P68400)
PRKCH (human) = PRKCH (human) (UniProt P24723)
GRK6 (human) = GRK6 (human) (UniProt P43250)
LIMK1 (human) = LIMK1 (human) (UniProt P53667)
FGFR3 (human) = FGFR3 (human) (UniProt P22607)

Chain of TGFBR1 (human) (P36897 whole entry, looked up): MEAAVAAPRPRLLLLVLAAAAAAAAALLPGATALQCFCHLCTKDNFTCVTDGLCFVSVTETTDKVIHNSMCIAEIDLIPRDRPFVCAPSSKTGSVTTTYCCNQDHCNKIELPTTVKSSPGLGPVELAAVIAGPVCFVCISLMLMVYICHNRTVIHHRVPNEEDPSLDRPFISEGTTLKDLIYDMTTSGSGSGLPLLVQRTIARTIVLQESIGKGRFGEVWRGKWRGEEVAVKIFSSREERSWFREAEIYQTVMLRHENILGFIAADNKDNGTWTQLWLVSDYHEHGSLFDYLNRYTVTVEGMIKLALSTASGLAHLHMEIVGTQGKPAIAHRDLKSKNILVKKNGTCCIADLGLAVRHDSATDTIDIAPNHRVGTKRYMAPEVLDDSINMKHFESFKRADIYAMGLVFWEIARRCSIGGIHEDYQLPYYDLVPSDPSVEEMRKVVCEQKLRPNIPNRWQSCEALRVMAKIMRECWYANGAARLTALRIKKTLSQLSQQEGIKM

residual activity (TGFBR1 (human)): 96.1%
residual activity (SYK (human)): 104%
residual activity (NEK1 (human)): 79.3%
residual activity (SLK (human)): 96.5%
residual activity (CSNK1D (human)): 85.1%
residual activity (PAK6 (human)): 88.2%
residual activity (LTK (human)): 86.3%
residual activity (NEK11 (human)): 87.1%
residual activity (TAOK3 (human)): 92.9%
residual activity (PIM3 (human)): 98.7%
residual activity (ROCK2 (human)): 90.5%
residual activity (CSNK1G2 (human)): 93.7%
residual activity (PRKCA (human)): 106%
residual activity (PLK1 (human)): 100%
residual activity (TBK1 (human)): 92.7%
residual activity (MAPK14 (human)): 76.3%
residual activity (ROS1 (human)): 101%
residual activity [1]: 98.5%
residual activity (PRKG2 (human)): 114%
residual activity (PDGFRB (human)): 73.4%
residual activity (ULK2 (human)): 125%
residual activity (PAK3 (human)): 98.4%
residual activity (HIPK1 (human)): 114%
residual activity (CAMK1G (human)): 95.8%
residual activity (LYN (human)): 3.49% and 5.13%
residual activity (EPHA2 (human)): 100%
residual activity (DYRK4 (human)): 91.6%
residual activity (MAPK11 (human)): 106%
residual activity (SGK2 (human)): 95.4%
residual activity (RPS6KA6 KD1 KD2 (human)): 96.6%
residual activity (SRMS (human)): 14.2%
residual activity (CAMKK1 (human)): 99.1%
residual activity (CAMKK2 (human)): 86.3%
residual activity (RPS6KB1 (human)): 104%
residual activity (CAMK1D (human)): 50.3%
residual activity (MST1R (human)): 94%
residual activity (CSNK2A1 (human)): 102%
residual activity (PRKCH (human)): 92.6%
residual activity (GRK6 (human)): 92.6%
residual activity (LIMK1 (human)): 95.7%
residual activity (FGFR3 (human)): 77.5%
SMILES: Nc1ncnc2c1c(-c1ccc(Oc3ccccc3)cc1)cn2C1CCCC1
residual activity (NEK9 (human)): 96.6%

SMILES: O=C(Nc1cccc(Nc2nccc(Nc3cccc(C(F)(F)F)c3)n2)c1)C1CC1
residual activity (TGFBR1 (human)): 102%
residual activity (SYK (human)): 101%
residual activity (NEK1 (human)): 82.8%
residual activity (SLK (human)): 92.9%
residual activity (CSNK1D (human)): 111%
residual activity (PAK6 (human)): 100%
residual activity (LTK (human)): 104%
residual activity (NEK11 (human)): 102%
residual activity (TAOK3 (human)): 110%
residual activity (PIM3 (human)): 106%
residual activity (NEK9 (human)): 102%
residual activity (ROCK2 (human)): 105%
residual activity (CSNK1G2 (human)): 101%
residual activity (PRKCA (human)): 71.9%
residual activity (PLK1 (human)): 91.7%
residual activity (TBK1 (human)): 91%
residual activity (MAPK14 (human)): 91.5%
residual activity (ROS1 (human)): 65.5%
residual activity [1]: 42.5%
residual activity (PRKG2 (human)): 96.2%
residual activity (PDGFRB (human)): 101%
residual activity (ULK2 (human)): 107%
residual activity (PAK3 (human)): 98.9%
residual activity (HIPK1 (human)): 98.7%
residual activity (CAMK1G (human)): 98.8%
residual activity (LYN (human)): 91.9% and 99.9%
residual activity (EPHA2 (human)): 87.3%
residual activity (DYRK4 (human)): 107%
residual activity (MAPK11 (human)): 103%
residual activity (SGK2 (human)): 118%
residual activity (RPS6KA6 KD1 KD2 (human)): 89.5%
residual activity (SRMS (human)): 95.5%
residual activity (CAMKK1 (human)): 97.9%
residual activity (CAMKK2 (human)): 99.5%
residual activity (RPS6KB1 (human)): 98%
residual activity (CAMK1D (human)): 100%
residual activity (MST1R (human)): 92.6%
residual activity (CSNK2A1 (human)): 94.1%
residual activity (PRKCH (human)): 98.6%
residual activity (GRK6 (human)): 93.8%
residual activity (LIMK1 (human)): 45.1%
residual activity (FGFR3 (human)): 95%

SMILES: CCN(CC)CCNC(=O)c1c(C)[nH]c(/C=C2\C(=O)Nc3ccc(Cl)cc32)c1C
residual activity (TGFBR1 (human)): 95.5%
residual activity (SYK (human)): 59.2%
residual activity (NEK1 (human)): 94.7%
residual activity (SLK (human)): 38%
residual activity (CSNK1D (human)): 49.7%
residual activity (PAK6 (human)): 101%
residual activity (LTK (human)): 11.6%
residual activity (NEK11 (human)): 83.4%
residual activity (TAOK3 (human)): 45.5%
residual activity (PIM3 (human)): 74%
residual activity (NEK9 (human)): 95.9%
residual activity (ROCK2 (human)): 73.5%
residual activity (CSNK1G2 (human)): 45.2%
residual activity (PRKCA (human)): 93.1%
residual activity (PLK1 (human)): 105%
residual activity (TBK1 (human)): 16.3%
residual activity (MAPK14 (human)): 103%
residual activity (ROS1 (human)): 43.9%
residual activity [1]: 30.8%
residual activity (PRKG2 (human)): 82.6%
residual activity (PDGFRB (human)): 9.28%
residual activity (ULK2 (human)): 43%
residual activity (PAK3 (human)): 93.8%
residual activity (HIPK1 (human)): 96.9%
residual activity (CAMK1G (human)): 49.5%
residual activity (LYN (human)): 21.9% and 6.34%
residual activity (EPHA2 (human)): 93.5%
residual activity (DYRK4 (human)): 97.9%
residual activity (MAPK11 (human)): 100%
residual activity (SGK2 (human)): 62.8%
residual activity (RPS6KA6 KD1 KD2 (human)): 10.5%
residual activity (SRMS (human)): 102%
residual activity (CAMKK1 (human)): 47.7%
residual activity (CAMKK2 (human)): 48%
residual activity (RPS6KB1 (human)): 41.7%
residual activity (CAMK1D (human)): 60.2%
residual activity (MST1R (human)): 96.7%
residual activity (CSNK2A1 (human)): 91.4%
residual activity (PRKCH (human)): 86.1%
residual activity (GRK6 (human)): 46.3%
residual activity (LIMK1 (human)): 98.4%
residual activity (FGFR3 (human)): 12.3%

SMILES: N#C/C(=C(/N)Sc1ccc(N)cc1)c1ccccc1C(F)(F)F
residual activity (TGFBR1 (human)): 98.3%
residual activity (SYK (human)): 99.3%
residual activity (NEK1 (human)): 99%
residual activity (SLK (human)): 102%
residual activity (CSNK1D (human)): 106%
residual activity (PAK6 (human)): 107%
residual activity (LTK (human)): 100%
residual activity (NEK11 (human)): 97.7%
residual activity (TAOK3 (human)): 98.6%
residual activity (PIM3 (human)): 111%
residual activity (NEK9 (human)): 99.2%
residual activity (ROCK2 (human)): 100%
residual activity (CSNK1G2 (human)): 96.4%
residual activity (PRKCA (human)): 100%
residual activity (PLK1 (human)): 92.6%
residual activity (TBK1 (human)): 98.1%
residual activity (MAPK14 (human)): 96%
residual activity (ROS1 (human)): 94.4%
residual activity [1]: 102%
residual activity (PRKG2 (human)): 113%
residual activity (PDGFRB (human)): 103%
residual activity (ULK2 (human)): 115%
residual activity (PAK3 (human)): 99.2%
residual activity (HIPK1 (human)): 107%
residual activity (CAMK1G (human)): 96.6%
residual activity (LYN (human)): 107% and 98.5%
residual activity (EPHA2 (human)): 104%
residual activity (DYRK4 (human)): 92.4%
residual activity (MAPK11 (human)): 112%
residual activity (SGK2 (human)): 99%
residual activity (RPS6KA6 KD1 KD2 (human)): 83.9%
residual activity (SRMS (human)): 105%
residual activity (CAMKK1 (human)): 117%
residual activity (CAMKK2 (human)): 85.5%
residual activity (RPS6KB1 (human)): 102%
residual activity (CAMK1D (human)): 129%
residual activity (MST1R (human)): 90.4%
residual activity (CSNK2A1 (human)): 97.9%
residual activity (PRKCH (human)): 96.4%
residual activity (GRK6 (human)): 100%
residual activity (LIMK1 (human)): 98.7%
residual activity (FGFR3 (human)): 98.5%
